Source: PubChem BioAssay (NCI)
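Where inhibition never reached the appropriate level, the endpoint shown equals the highest concentration tested. Otherwise, values were interpolated linearly from a five-concentration, 48-hour dose response in 96-well plates. Abbreviation: GI50, concentration required for 50% inhibition of growth. At the TGI there is no net growth.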

What was measured:
Test in all cases: NCI-60 cell line screen, 48 h
CCRF-CEM leukemia = tested on: CCRF-CEM leukemia
UACC-257 melanoma = tested on: UACC-257 melanoma
LOX IMVI melanoma = tested on: LOX IMVI melanoma
SNB-19 CNS = tested on: SNB-19 CNS
COLO 205 colon = tested on: COLO 205 colon
RXF 393 renal = tested on: RXF 393 renal
NCI-H226 lung = tested on: NCI-H226 lung
K-562 leukemia = tested on: K-562 leukemia
SNB-75 CNS = tested on: SNB-75 CNS
UACC-62 melanoma = tested on: UACC-62 melanoma

SMILES	TGI (CCRF-CEM leukemia)	TGI (UACC-257 melanoma)	TGI (LOX IMVI melanoma)	TGI (SNB-19 CNS)	TGI (COLO 205 colon)	TGI (RXF 393 renal)	TGI (NCI-H226 lung)	TGI (K-562 leukemia)	TGI (SNB-75 CNS)	TGI (UACC-62 melanoma)	GI50 (CCRF-CEM leukemia)	GI50 (UACC-257 melanoma)	GI50 (LOX IMVI melanoma)	GI50 (SNB-19 CNS)	GI50 (COLO 205 colon)	GI50 (RXF 393 renal)	GI50 (NCI-H226 lung)	GI50 (K-562 leukemia)	GI50 (SNB-75 CNS)	GI50 (UACC-62 melanoma)
Cc1c(C2=C(Br)C(=O)N(C)C2=O)c(=O)n(C)c(=O)n1C	48 µM	32 µM	32.3 µM	> 100 µM	34.5 µM	29 µM	> 100 µM	59.7 µM	> 100 µM	97.9 µM	–	–	–	–	–	–	–	–	–	–
CCOC(=O)CNC(=O)c1ccccc1Nc1ccnc(C(F)(F)F)c1	> 37.9 µM	> 100 µM	36.2 µM	> 100 µM	> 67.2 µM	> 64.4 µM	> 100 µM	> 69.4 µM	> 100 µM	> 61.2 µM	7.97 µM	68.7 µM	17.5 µM	34.2 µM	17.8 µM	31.3 µM	> 100 µM	24 µM	> 100 µM	22.4 µM
C=CCNC(=O)N(CCC)CCCCC(NC(C)=O)C(=O)NCc1ccccc1 (stereo not given)	> 100 µM	> 100 µM	> 100 µM	> 100 µM	> 100 µM	> 100 µM	> 100 µM	> 100 µM	> 100 µM	> 100 µM	–	–	–	–	–	–	–	–	–	–
CN(C)C(=S)/N=c1\ss/c(=N\C(=S)N(C)C)n1-c1ccc(Cl)c(Cl)c1	> 100 µM	> 100 µM	> 100 µM	> 100 µM	> 100 µM	> 100 µM	> 100 µM	> 100 µM	61.2 µM	> 100 µM	–	–	–	–	–	–	–	–	–	–
COC(=O)/C(C#N)=C1\CCC(O)N1 (stereo not given)	> 100 µM	> 100 µM	> 100 µM	> 100 µM	> 100 µM	> 100 µM	> 100 µM	> 100 µM	> 100 µM	> 100 µM	–	–	–	–	–	–	–	–	–	–
C=C1C[C@]23CCC4C(C)(C)C(=O)CC[C@]4(C)C2C[C@H]1C(O)C3=O (stereo not given in full)	> 75 µM	> 75 µM	> 75 µM	> 75 µM	> 75 µM	> 75 µM	> 75 µM	> 75 µM	> 75 µM	> 75 µM	–	–	–	–	–	–	–	–	–	–
CC(C)S(=O)(=O)c1ccccc1Nc1nc(Nc2cccc(NC(=O)CN)c2)ncc1Cl	4.5 µM	6.73 µM	0.258 µM	10.1 µM	0.223 µM	0.302 µM	1.98 µM	2.55 µM	0.41 µM	1.83 µM	< 0.0355 µM	0.997 µM	0.0384 µM	0.251 µM	0.0319 µM	0.0565 µM	0.113 µM	0.198 µM	0.0346 µM	0.164 µM
CC1(C)O/C(=C\c2ccccc2)C(=O)/C(=C/c2ccccc2)O1	44.4 µM	71.7 µM	> 100 µM	> 100 µM	> 100 µM	47.6 µM	96.3 µM	> 100 µM	> 100 µM	> 100 µM	–	–	–	–	–	–	–	–	–	–
O=C(Nc1cc(Cl)ccc1Cl)C(=O)C(c1cnc2ccccc2n1)[N+](=O)[O-] (stereo not given)	> 100 µM	> 100 µM	> 100 µM	> 100 µM	> 100 µM	> 100 µM	> 100 µM	> 100 µM	> 100 µM	> 100 µM	–	–	–	–	–	–	–	–	–	–
